In general, IC50 refers to the concentration that gives 50% inhibition. A lower IC50 goes with greater potency in that assay.

Experimental findings from patent US20250043299A1, “POINT MUTATIONS THAT BOOST AROMATIC AMINO ACID PRODUCTION AND CO2 ASSIMILATION IN PLANTS” (Wisconsin Alumni Research Foundation, priority 2021, published 2025) are described below.

For assay [1], the target named is T1, DHS2^A4 (Arabidopsis thaliana, UniProt Q00218, G222S).
T1 construct: without the predicted plastid transit peptide (amino acid residues; 49-525, 34-507, and 52-527, respectively); made in house; host or cells: E. coli
T1 sequence (Q00218 34-507 G222S): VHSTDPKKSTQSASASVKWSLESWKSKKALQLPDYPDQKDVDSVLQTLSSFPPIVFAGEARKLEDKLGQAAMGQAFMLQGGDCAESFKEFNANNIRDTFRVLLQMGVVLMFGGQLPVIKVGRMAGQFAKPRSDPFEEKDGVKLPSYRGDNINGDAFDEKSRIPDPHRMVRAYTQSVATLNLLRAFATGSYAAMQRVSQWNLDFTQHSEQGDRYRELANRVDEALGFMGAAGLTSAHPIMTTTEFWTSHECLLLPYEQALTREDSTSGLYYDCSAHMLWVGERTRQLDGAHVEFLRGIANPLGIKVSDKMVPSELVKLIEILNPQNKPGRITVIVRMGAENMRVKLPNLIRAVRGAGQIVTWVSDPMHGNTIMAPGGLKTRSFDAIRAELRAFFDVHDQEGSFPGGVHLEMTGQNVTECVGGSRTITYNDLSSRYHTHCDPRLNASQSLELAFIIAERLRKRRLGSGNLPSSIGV
Put plainly: Differential scanning fluorimetry (DSF) protein-ligand affinity analysis, DHS2^A4. The format is binding. The conditions noted are these: ligand at 1 mM. The method, then: To examine the impact of the sota mutations on the interaction between DHS and AAA effectors (FIG. 22), a differential scanning fluorimetry (DSF) analysis (48) was conducted using the recombinant DHS2^WT and DHS2^A4 proteins. […] The fluorescence signal was monitored during the stepwise increase in temperature (1° C. per minute from 25° C. to 95° C.). The Tm was calculated by nonlinear regression analysis using the Boltzmann sigmoidal equation (48).
(In general: In DSF a fluorescence change marks the thermal transition of the protein.)

The target of assay [2] is T2, Arabidopsis thaliana DHS1 (AtDHS1), wild type (DHS1^WT), SEQ ID NO:1 (Arabidopsis thaliana, UniProt P29976).
T2 construct: without the predicted plastid transit peptide (amino acid residues; 49-525, 34-507, and 52-527, respectively); made in house; host or cells: E. coli Rosetta-2
T2 sequence (P29976 49-525): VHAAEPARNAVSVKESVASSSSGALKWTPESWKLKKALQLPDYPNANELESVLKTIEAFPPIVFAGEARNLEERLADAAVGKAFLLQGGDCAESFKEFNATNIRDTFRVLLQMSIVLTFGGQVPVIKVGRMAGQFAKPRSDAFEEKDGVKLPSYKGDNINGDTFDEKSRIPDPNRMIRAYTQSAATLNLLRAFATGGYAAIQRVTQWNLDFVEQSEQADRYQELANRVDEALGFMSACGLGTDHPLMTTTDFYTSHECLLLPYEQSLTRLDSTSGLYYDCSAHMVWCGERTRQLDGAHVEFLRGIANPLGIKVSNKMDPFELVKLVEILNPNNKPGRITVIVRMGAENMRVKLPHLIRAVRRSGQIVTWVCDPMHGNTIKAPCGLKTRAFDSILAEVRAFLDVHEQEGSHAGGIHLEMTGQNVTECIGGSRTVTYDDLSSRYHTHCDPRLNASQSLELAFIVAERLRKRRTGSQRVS
Put plainly: DHS enzyme assay with effector, Arabidopsis DHS1 WT. The format is biochemical. The settings on record: DHS1^WT; 4 mM E4P, 4 mM PEP, pH 7.4, 37° C. The method, then: To generate DHS proteins with individual sota mutations via site-directed mutagenesis, these pET28a plasmid templates were diluted by 500-fold, mixed with 0.04 U/μL Phusion DNA polymerase (Thermo Scientific), 0.2 mM deoxynucleoside triphosphates (dNTPs), 1× Phusion reaction buffer (Thermo Scientific), and 0.5 μM forward and reverse mutagenesis primers (Table 10). The PCR reaction was run using the following protocol: 98° C. for 30 s followed by 20 cycles of 10 s at 98° C., 20 s at 70° C., 4.5 min at 72° C. with a final extension at 72° C. for 10 min. The PCR products were purified using a QIAquick Gel Extraction Kit (QIAGEN), treated with FastDigest DpnI (Thermo Scientific) to digest methylated plasmid template DNA for 20 min at 37° C., and transformed into E. coli cells. The mutagenized pET28a plasmids were sequenced to confirm that no errors were introduced during the mutagenesis process.
The DHS enzyme assays were conducted using the colorimetric method that we recently described (9). Briefly, the enzyme solution (7.7 μl) containing 50 mM Hepes (pH 7.4) was preincubated with an effector molecule(s) at room temperature for 15 min. For assays using recombinant protein and enzyme fractions isolated from plant leaves, 0.01 to 0.1 μg and approximately 50 μg of proteins were used, respectively. After adding 0.5 μl of 0.1 M dithiothreitol, the samples were further incubated at room temperature for 15 min. During these incubations, the substrate solution containing 50 mM Hepes (pH 7.4), 2 mM MnCl2, 4 mM E4P, and 4 mM PEP at final concentration was preheated at 37° C. The enzyme reaction was started by adding 6.8 μl of the substrate solution, then incubated at 37° C. for 30 min, and terminated by adding 30 μl of 0.6 M trichloroacetic acid. After a brief centrifugation, 5 μl of 200 mM NaIO4 (sodium meta-periodate) in 9 N H3PO4 was added to oxidize the enzymatic product and to incubate at 25° C. for 20 min. To stop the oxidation reaction, 20 μl of 0.75 M NaAsO2 (sodium arsenite), which was dissolved in 0.5 M Na2SO4 and 0.05 M H2SO4, was added and immediately mixed. […]

Entries after “also recorded” stand apart in the source; their conditions may differ.

As for `N[C@@H](Cc1c[nH]c2ccccc12)C(=O)O` [Trp, tryptophan], the “effect on melting temperature (Tm) / binding of DHS2^A4” value in assay [1] was “still binds; also recorded: significantly increased the Tm”.

Compound `O=C(O)C(=O)Cc1ccc(O)cc1` [HPP, 4-Hydroxyphenylpyruvate] yielded an IC50 in assay [2] of 305 µM.
